Tests used:
Dipeptidyl peptidase 8 = Dipeptidyl peptidase 8 (Homo sapiens, UniProt Q6V1X1)
Dipeptidyl peptidase 9 = Dipeptidyl peptidase 9 (Homo sapiens, UniProt Q86TI2)
Sequence of Dipeptidyl peptidase 9 (Q86TI2 whole entry): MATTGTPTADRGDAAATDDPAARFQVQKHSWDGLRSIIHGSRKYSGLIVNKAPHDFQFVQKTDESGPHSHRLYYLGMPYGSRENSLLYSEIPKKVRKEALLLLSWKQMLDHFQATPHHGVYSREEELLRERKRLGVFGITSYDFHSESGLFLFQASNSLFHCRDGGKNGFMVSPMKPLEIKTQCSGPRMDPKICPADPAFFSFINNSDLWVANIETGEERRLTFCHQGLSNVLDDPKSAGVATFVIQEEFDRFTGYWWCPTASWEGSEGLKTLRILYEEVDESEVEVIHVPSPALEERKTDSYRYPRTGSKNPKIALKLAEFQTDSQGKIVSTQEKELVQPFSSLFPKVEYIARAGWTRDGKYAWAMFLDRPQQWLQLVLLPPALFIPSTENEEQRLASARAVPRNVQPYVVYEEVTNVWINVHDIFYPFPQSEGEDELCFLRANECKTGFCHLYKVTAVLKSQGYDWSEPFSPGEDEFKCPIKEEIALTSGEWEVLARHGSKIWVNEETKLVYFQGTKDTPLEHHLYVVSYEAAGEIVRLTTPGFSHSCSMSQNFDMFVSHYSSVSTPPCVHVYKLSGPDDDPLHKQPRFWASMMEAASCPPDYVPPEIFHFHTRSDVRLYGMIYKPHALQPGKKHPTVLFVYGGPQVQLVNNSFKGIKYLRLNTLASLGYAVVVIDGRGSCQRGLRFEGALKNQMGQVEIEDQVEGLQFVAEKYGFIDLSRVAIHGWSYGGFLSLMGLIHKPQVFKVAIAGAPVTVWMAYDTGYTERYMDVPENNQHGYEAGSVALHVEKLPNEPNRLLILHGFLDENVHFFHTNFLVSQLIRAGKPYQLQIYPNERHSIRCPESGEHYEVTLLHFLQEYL

Sequence of Dipeptidyl peptidase 8 (Q6V1X1 whole entry): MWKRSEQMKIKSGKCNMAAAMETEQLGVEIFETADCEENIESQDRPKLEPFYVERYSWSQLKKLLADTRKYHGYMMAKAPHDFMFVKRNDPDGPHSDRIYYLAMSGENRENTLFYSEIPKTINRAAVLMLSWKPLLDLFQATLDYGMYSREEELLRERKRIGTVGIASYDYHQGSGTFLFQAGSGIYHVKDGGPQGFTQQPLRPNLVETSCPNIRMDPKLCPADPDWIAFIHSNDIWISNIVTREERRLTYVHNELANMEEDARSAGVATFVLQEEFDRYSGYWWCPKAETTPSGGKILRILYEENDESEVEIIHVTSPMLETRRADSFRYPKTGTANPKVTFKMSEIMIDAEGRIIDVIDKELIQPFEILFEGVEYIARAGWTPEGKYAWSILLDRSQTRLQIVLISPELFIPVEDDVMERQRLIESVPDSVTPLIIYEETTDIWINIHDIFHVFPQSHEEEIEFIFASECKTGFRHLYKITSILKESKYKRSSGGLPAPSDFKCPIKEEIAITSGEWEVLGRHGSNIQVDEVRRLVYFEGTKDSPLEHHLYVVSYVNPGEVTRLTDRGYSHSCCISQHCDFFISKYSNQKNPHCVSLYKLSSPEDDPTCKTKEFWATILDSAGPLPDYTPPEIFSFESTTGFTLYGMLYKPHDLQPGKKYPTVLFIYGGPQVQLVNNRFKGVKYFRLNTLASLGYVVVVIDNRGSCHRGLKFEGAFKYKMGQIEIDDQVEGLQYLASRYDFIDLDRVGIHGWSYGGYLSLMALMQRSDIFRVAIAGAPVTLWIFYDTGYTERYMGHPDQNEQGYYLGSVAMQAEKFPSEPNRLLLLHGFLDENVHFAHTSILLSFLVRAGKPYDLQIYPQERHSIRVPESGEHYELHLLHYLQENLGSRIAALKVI

Ki (Dipeptidyl peptidase 8) [µM]	Ki (Dipeptidyl peptidase 9) [µM]	Structure (SMILES)
> 30	> 30	C#C[C@H]1CC[C@@H](C#N)N1C(=O)CNC(C)(C)C
> 30		C#C[C@H]1CC[C@@H](C#N)N1C(=O)CN[C@H]1CC[C@H](Oc2ccc(C#N)cn2)CC1 (mixture of isomers)
